# Source: article PMC4764977, “AZD8797 is an allosteric non-competitive modulator of the human CX3CR1 receptor” (Biochemical Journal, 2016)
# Where “and” joins values, the source holds several entries; their conditions need not be identical. Equal entries are not always repeated. Where two headings read alike, the source gives them in different places.
# Columns and labels:
# [1] = test system: untransfected CHO-K1 cells; assay: Dynamic mass redistribution (DMR), untransfected CHO-K1 cells; format: cell-based, Chinese hamster
# [2] = molecular target: T1, CX3CR1 (Homo sapiens, UniProt P49238); parameters: method as in PMID 23516963; conditions: HEK293 cells co-transfected with Gqi5-protein; read-out: Ki, 125I-CX3CL1 competition assay; cited from earlier work
# T1 sequence (P49238 1-355): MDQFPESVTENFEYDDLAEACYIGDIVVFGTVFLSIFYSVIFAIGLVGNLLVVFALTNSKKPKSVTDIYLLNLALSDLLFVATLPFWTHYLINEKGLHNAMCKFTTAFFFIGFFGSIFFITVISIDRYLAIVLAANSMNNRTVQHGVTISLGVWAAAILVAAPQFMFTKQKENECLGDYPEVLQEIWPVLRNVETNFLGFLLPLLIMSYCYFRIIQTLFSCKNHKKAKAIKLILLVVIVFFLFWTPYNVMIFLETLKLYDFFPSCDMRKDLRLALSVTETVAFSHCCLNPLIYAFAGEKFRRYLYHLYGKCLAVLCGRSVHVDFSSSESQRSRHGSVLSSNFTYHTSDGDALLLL
# [3] = molecular target: T1, CX3CR1; assay: 125I-CX3CL1 kinetic radioligand binding, CHO-hCX3CR1 membranes; parameters: host or cells: CHO-K1
# Description: Incubation times ranged from 2.5 min to 4 h. For the association experiments, the radioligand data were fitted to the following monophasic exponential association equation and the association rate (kon) was calculated using the added amounts of radioligand (L) and dissociation rate (koff) as constants. koff was measured in separate dissociation experiments. The dissociation data were fitted to the monophasic exponential decay equation: where Y0 is the binding (cpm) at time zero, X is the time and NS is the (non-specific) binding at infinite times. […] Multiple compound dissociation data were fitted to the biphasic exponential decay equation: […]
# [4] = molecular target: T1, CX3CR1; assay: [3H]AZD8797 competition binding, CHO-hCX3CR1 membranes; parameters: host or cells: CHO-K1; conditions: 2 nM [3H]AZD8797, n=7
# Description: Adherent CHO-K1 cells stably expressing human CX3CR1 (CHO-hCX3CR1) were grown in F12 medium with GlutaMAX, 10% FBS (Sigma–Aldrich) and 400 μg·ml^−1 geneticin and harvested at 80% confluency. Cells were washed in PBS and lysed with an Ultra-Turrax Homogenizer in 50 mM Tris/HCl (pH 7.4) and 1 mM EDTA with Complete™ protease inhibitor (Roche). […] Protein concentration was determined using the BCA method (Thermo Fisher Scientific). […] The filter plate was washed in ice-cold 25 mM HEPES (pH 7.4), 5 mM MgCl2, 1 mM CaCl2 and 500 mM NaCl and dried at 50°C for 1 h. Scintillation cocktail, Optiphase Supermix (PerkinElmer) was added to each well and the radioactivity was measured using a MicroBeta Trilux reader (PerkinElmer). All analysis and calculations were performed using GraphPad Prism 6.01. Functional and competition binding data were analysed using non-linear regression and fitted to a sigmoidal dose-response with variable slope according to the following equation: […] where Y is the amount of radioligand bound (cpm) or functional effect, Top denotes maximal asymptotic binding, and Bottom denotes the minimal asymptotic binding. XC50 is either the EC50 or the IC50 value, and X is the logarithm of the test compound concentration. Ki values were calculated from IC50 values using the Cheng–Prusoff equation: […]
# [5] = molecular target: T1, CX3CR1; assay: Dynamic mass redistribution (DMR), CHO-hCX3CR1 cells; format: cell-based; parameters: host or cells: CHO-K1
# Description: (§1) CHO-hCX3CR1 cells were seeded at 12000 cells per well in DMEM with 10% FBS and RPMI-8226 cells at 8000 cells per well in RPMI 1640 medium with GlutaMAX and 20% FBS on 384-well fibronectin-coated EPIC™ biosensor plates (Corning) and cultured at 37°C for 24 h. At 18–24 h prior to compound treatment, the medium was replaced with serum-free medium with or without 100 ng·ml^−1 PTX. Cells were then washed with assay buffer (HBSS, 20 mM HEPES (pH 7.4) and 0.01% BSA) and allowed to equilibrate at 26°C for 1 h inside the EPIC™ plate reader. Following equilibration, a baseline scan was performed before adding AZD8797 or CX3CL1 using a CyBi-Well vario (CyBio). Dynamic mass redistribution (DMR) was then measured during a 60 min scan. As in the [^35S]GTPγS binding assay, the final DMSO concentration was held constant at 1%.
# [6] = molecular target: T2, CX3CR1 (RPMI-8226 cells endogenously expressing human CX3CR1) (Homo sapiens, UniProt P49238); assay: Cellix flow adhesion of RPMI-8226 cells to full-length CX3CL1; format: cell-based; conditions: flow 0.5 dyn·cm^−2, 15 min pre-incubation, n=3; read-out: IC50, prevention of capture (adhesion) of RPMI-8226 cells to CX3CL1
# T2 construct: RPMI-8226 cells, a human B-lymphocyte cell line endogenously expressing human CX3CR1; CCL-155; host or cells: RPMI-8226
# T2 sequence (P49238 1-355): T1 sequence (P49238 1-355)
# Description: Adhesion of a human B-lymphocyte cell line (RPMI-8226) or hWB leucocytes to full-length human CX3CL1 were monitored using a microfluidics Cellix VenaFlux platform and Vena 8 Biochips (Cellix). Each channel on the Vena 8 chip was coated with anti-His monoclonal antibody (R&D Systems) followed by His-tagged full-length CX3CL1 (R&D Systems) and blocked for non-specific binding (NSB) with BSA.
# Cell preparations: RPMI-8226 cells were cultured in RPMI 1640 medium with GlutaMAX and 20% FBS (HyClone, Perbio). Before the experiment, cells were centrifuged at 320 g and resuspended to 5 ×10^6 cells·ml^−1 in RPMI 1640 with 1% FBS. hWB with heparin as anti-coagulant was collected from healthy donors and 5 μM DiOC6 was added. AZD8797 was diluted in a 3-fold series in DMSO starting at 3.3 or 30 μM and pre-incubated with RPMI-8226 cells for 15 min or whole blood for 60 min. DMSO concentration held constant for all AZD8797 concentrations (0.1% for the RPMI-8226 experiments and 0.3% for the whole blood experiments). […]
# RPMI-8226 cells in RPMI 1640+1% FBS or whole blood were pumped through the channels at 0.5 dyn·cm^−2 and 2.25 dyn·cm^−2 respectively, for 3 min. Images for quantification were captured using a microscope. Cells adhering to channels were counted and the mean values across five images in each channel were used for calculating the concentration–response curves.
# [7] = molecular target: T3, CX3CR1 (RPMI-8226 cells) (Homo sapiens, UniProt P49238); assay: Dynamic mass redistribution (DMR), RPMI-8226 cells; format: cell-based
# T3 construct: RPMI-8226 cells, a human B-lymphocyte cell line endogenously expressing human CX3CR1; CCL-155; host or cells: RPMI-8226
# T3 sequence (P49238 1-355): T1 sequence (P49238 1-355)
# Description: as §1
# [8] = in presence of 10 μM AZD8797 + 100 nM CX3CL1, two-phase model, n=3
smiles,measurement,setting,value
CC(C)C[C@H](CO)Nc1nc(S[C@@H](C)c2ccccc2)nc2nc(N)sc12 [AZD8797],DMR response in untransfected cells,[1],38 % of AZD8797 effect in transfected cells
same,DMR response in untransfected cells (words),[1],only weakly responded
same,Ki,[2],4 nM
same,k1off of 125I-CX3CL1 dissociation (fast first phase),[3]; [8],0.45 min⁻¹
same,k2off of 125I-CX3CL1 dissociation (second slower phase),[3]; [8],0.0060 min⁻¹
same,Effect on 125I-CX3CL1 association rate (kon),[3]; results not shown,no effect
same,Effect on maximal binding of 125I-CX3CL1 in association experiments,[3]; results not shown,decreased
same,Ki,[4],7.3 nM
same,Concentration needed for agonist response vs concentration needed to block CX3CL1 binding and functional response in membranes,[5]; CHO-hCX3CR1 cells vs purified membranes,more than 10 fold
same,Effect of PTX treatment on DMR signal,"[5]; CHO-hCX3CR1 cells, 100 ng·ml^−1 PTX",reduced
same,"Maximum effect, DMR","[5]; CHO-hCX3CR1 cells, compound alone, no plateau, n=3",79 % of CX3CL1
same,EC50,"[5]; CHO-hCX3CR1 cells, compound alone, no plateau, n=3, read-out: Potency, DMR agonism",> 5000 nM
same,Antagonist response in DMR,"[5]; challenging EC80 of CX3CL1 with different concentrations, cell line not specified, results not shown",could not measure any antagonist response
same,IC50,[6],6 nM and 5.8 nM
same,Effect of PTX treatment on DMR signal,[7]; 100 ng·ml^−1 PTX,reduced
same,EC50,[7]; n=3,410 nM
